In patent publication US20120014912A1, “PALATABLE PHARMACEUTICAL COMPOSITION” (VERTEX PHARMACEUTICALS INCORPORATED, priority 2010, published 2012):

Test system: HCV
Experiment: Clinical trials, antiviral activity
Assay type: in vivo, Hepatitis C virus

Structure (SMILES): CCC[C@H](NC(=O)[C@@H]1[C@H]2CCC[C@H]2CN1C(=O)[C@@H](NC(=O)[C@@H](NC(=O)c1cnccn1)C1CCCCC1)C(C)(C)C)C(=O)C(=O)NC1CC1 [VX-950]
- antiviral activity: has shown antiviral activity
